Assay results reported in paper PMC7290078, “Agonist bias and agonist‐dependent antagonism at corticotrophin releasing factor receptors” (Pharmacology Research & Perspectives, 2020).
No end group written: not given here.

Tests used:
CRF2 receptor (hCRF2α) = target: T1, CRF2 receptor (hCRF2α) (Homo sapiens, UniProt Q13324); test: cAMP accumulation (LANCE) in Cos7 cells transfected with hCRF2α, agonist stimulation; format: cell-based
T1 construct: host or cells: Cos7 cells, transient transfection (PEI), pcDNA3.0/3.1 vector
T1 sequence (Q13324 1-411): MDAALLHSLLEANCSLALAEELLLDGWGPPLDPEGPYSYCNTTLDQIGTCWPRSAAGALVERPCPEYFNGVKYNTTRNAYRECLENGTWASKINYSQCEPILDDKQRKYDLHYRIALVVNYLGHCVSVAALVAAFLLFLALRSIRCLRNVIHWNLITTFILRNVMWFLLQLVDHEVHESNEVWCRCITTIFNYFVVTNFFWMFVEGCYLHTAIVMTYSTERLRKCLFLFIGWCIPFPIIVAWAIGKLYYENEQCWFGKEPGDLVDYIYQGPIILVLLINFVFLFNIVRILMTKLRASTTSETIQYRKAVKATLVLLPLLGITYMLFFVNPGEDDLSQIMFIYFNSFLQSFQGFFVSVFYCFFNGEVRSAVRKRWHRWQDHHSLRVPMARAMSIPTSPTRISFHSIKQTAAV
From the text: (§1) Plasmids containing hCRF1α and hCRF2α (GenBank accession numbers AY457172 and AY449734) were obtained from the cDNA Resource Centre (Bloomsburg University) and are referred to as CRF1 and CRF2 in this manuscript. Hemagglutinin (HA) epitope‐tagged human Calcitonin (CT) receptor (CT(a) splice variant) and myc‐tagged human RAMP1 were used as described previously. ^27 HA‐tagged human calcitonin receptor‐like receptor (CLR), N‐terminal FLAG‐tagged human RAMP3 and N‐terminal myc‐tagged human RAMP3 were a gift from Professor David Poyner (Aston University) and Professor Patrick Sexton (Monash University), respectively. N‐terminal FLAG‐tagged human RAMP2 was used as described previously. ^28 All receptors and RAMPs were cloned in pcDNA3.0 or pcDNA3.1 plasmid vectors. All plasmid inserts were sequenced at the Centre for Genomics, Proteomics and Metabolomics (University of Auckland) and the sequences were verified prior to use.
(§2) Cos7, HEK‐293S, and HEK‐293T cells were cultured as described previously. ^28 , ^29 Cos7 cells were originally supplied by the ATCC to Associate Professor Nigel Birch (University of Auckland). HEK‐293S cells were a gift from Professor David Poyner (Aston University) and HEK‐293T cells a gift from Professor John Taylor (University of Auckland). Briefly, all cell lines were cultured in Dulbecco's Modified Eagle Medium (DMEM) supplemented with 8% heat inactivated fetal bovine serum (FBS) and maintained in a humidified incubator at 37°C with 5% CO2. For transfection, cells were counted (Countess CounterTM; Life Technologies) and plated at a density of 20 000 cells per well in 96‐well plates. The cells were transiently transfected 48 hours prior to assaying using polyethylenimine (PEI), as described previously. ^28 , ^29 In all experiments a total of 0.25 μg DNA was transfected per well. In the majority of experiments 0.25 μg DNA of receptor‐containing plasmid or the pcDNA3.1 plasmid without an insert was used. For experiments involving RAMPs, 0.125 μg of receptor DNA and 0.125 μg of RAMP‐containing plasmid DNA were transfected to give a 1:1 ratio of receptor to RAMP. Where the RAMP or receptor were transfected alone, the ratio of DNA was made up with the pcDNA3.1 plasmid.
cAMP accumulation in Cos7 cells transfected with hCRF1α or hCRF2α receptors was measured using the LANCE cAMP detection assay kit (PerkinElmer Life and Analytical Sciences) as described previously. ^30 Briefly, culture media was removed and replaced with DMEM containing 0.1% bovine albumin serum (BSA) and 1 mmol/L 3‐isobutyl‐1‐methylxanthine (IBMX) for 30 minutes at 37°C. Cells were incubated for an additional 15 minutes at 37°C with media or agonist concentrations of 1 pmol/L to 1 µmol/L for agonist only assays or 10 pmol/L to 10 µmol/L concentrations for antagonist experiments. Antagonists were added simultaneously or immediately prior to the addition of agonists. To stop cell stimulation and extract cAMP, the contents of the wells were replaced with 50 µL absolute ethanol. Samples were left at −20°C for a minimum of 10 minutes. The ethanol was evaporated and replaced with 50 µL of cAMP detection buffer. Samples were shaken for 15 minutes before 5 µL cell lysate was transferred to a white 384‐well optiplate and processed for cAMP quantification as described previously. ^31 Samples were read using an Envision plate reader (PerkinElmer). cAMP concentrations were determined from a standard curve generated in duplicate.
In all experiments the position of peptides and antagonists (pharmacology) or transfected receptors (ELISAs) on assay plates was randomized during each independent experiment, which are independent biological replicates. In all cases, duplicate, triplicate, or quadruplicate technical replicates were conducted for each independent experiment.

CRF1 receptor (hCRF1α) = target: T2, CRF1 receptor (hCRF1α) (Homo sapiens, UniProt P34998); test: cAMP accumulation (LANCE) in Cos7 cells transfected with hCRF1α, agonist stimulation; format: cell-based
T2 construct: host or cells: Cos7 cells, transient transfection (PEI), pcDNA3.0/3.1 vector
T2 sequence (P34998 24-415): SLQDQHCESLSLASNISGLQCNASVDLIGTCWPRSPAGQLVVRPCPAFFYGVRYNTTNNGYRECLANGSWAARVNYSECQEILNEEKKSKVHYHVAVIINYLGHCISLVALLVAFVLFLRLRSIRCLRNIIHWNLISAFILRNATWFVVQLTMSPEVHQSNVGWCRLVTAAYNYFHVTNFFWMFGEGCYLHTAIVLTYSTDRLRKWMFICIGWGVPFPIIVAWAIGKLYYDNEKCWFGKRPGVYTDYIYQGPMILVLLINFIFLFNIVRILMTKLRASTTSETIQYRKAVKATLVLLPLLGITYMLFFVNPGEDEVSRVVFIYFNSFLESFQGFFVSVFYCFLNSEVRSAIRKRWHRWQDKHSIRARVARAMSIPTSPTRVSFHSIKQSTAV
From the text: as §1
as §2, with “Where the RAMP or receptor were transfected alone, the ratio of DNA was made up with the pcDNA3.1 plasmid.” left out
cAMP accumulation in Cos7 cells transfected with hCRF1α or hCRF2α receptors was measured using the LANCE cAMP detection assay kit (PerkinElmer Life and Analytical Sciences) as described previously. ^30 Briefly, culture media was removed and replaced with DMEM containing 0.1% bovine albumin serum (BSA) and 1 mmol/L 3‐isobutyl‐1‐methylxanthine (IBMX) for 30 minutes at 37°C. […] Samples were shaken for 15 minutes before 5 µL cell lysate was transferred to a white 384‐well optiplate and processed for cAMP quantification as described previously. ^31 Samples were read using an Envision plate reader (PerkinElmer). cAMP concentrations were determined from a standard curve generated in duplicate. […]

Row | Substance | concentration‐dependent increase in cAMP (CRF2 receptor (hCRF2α); CRF2 receptor) | ΔΔlog(τ/K A) (signaling bias) (CRF2 receptor (hCRF2α); cAMP (reference pathway), hCRF2α, reference agonist UCN1, mean ± SEM, n = 5) | Hill slope (CRF2 receptor (hCRF2α); cAMP, CRF2 receptor) | Δlog(τ/K A) (relative efficacy) (CRF2 receptor (hCRF2α); cAMP, hCRF2α, reference agonist UCN1, mean ± SEM, n = 5) | concentration‐dependent increase in cAMP (CRF1 receptor (hCRF1α); CRF1 receptor) | EC50 (CRF2 receptor (hCRF2α); cAMP, hCRF2α, Cos7, 15 min at 37°C, 1 mmol/L IBMX, 1 pmol/L to 1 µmol/L agonist, mean ± SEM, n = 5) | EC50 (CRF1 receptor (hCRF1α); cAMP, hCRF1α, Cos7, 15 min at 37°C, 1 mmol/L IBMX, 1 pmol/L to 1 µmol/L agonist, mean ± SEM, n = 5)
1 | IVLSLDVPIGLLQILLEQARARAAREQATTNARILARVGHC-NH2 (C-terminus assumed) [UCN2] | concentration‐dependent increases | 0.00 ± 0.27 | not significantly different from one | −0.55 ± 0.19 | not UCN2 and UCN3 exhibited a concentration‐dependent increase | – | –
2 | DNPSLSIDLTFHLLRTLLELARTQSQRERAEQNRIIFDSV-NH2 [UCN1] | – | – | – | – | – | 0.0955 nM | 0.107 nM
